Results reported in patent US20230312587A1, “PTERIDINONE COMPOUNDS AND USES THEREOF” (Vertex Pharmaceutical Incorporated, priority 2018, published 2023).

system: HepG2 WFS1 KO; test: In vitro cell viability (CellTiter-Glo), HepG2 WFS1 KO; type: cell-based; settings: HepG2 WFS1 knockout, 96 hours; read-out: HepG2 WFS1 KO viability
Description: A double cleavage strategy was employed to remove large fragments from the WFS1 locus. Suitable target sites in WFS1 exon 8 were first selected using CRISPR design software to rank suitable target sites and computationally predict off-target sites for each intended target. Six top guide RNA sequences are identified and screened for activity using the Surveyor Mutation Detection Kit (Integrated DNA Technologies). Then, the best 2 guide RNAs were cloned into GeneArt OFP CRISPR nuclease vectors (Thermofisher, Cat #A21174) separately and co-transfected into HepG2 cells using nucleofection (4D Nucleofector X, Lonza). Cells were sorted by FACS 48 hrs later to enrich for the OFP positive cell population. The OFP positive cell population were plated into 96-well plates at 0.5-5 cells/well to isolate clonal cell lines. After allowing cells to expand for 2-3 weeks, plates were inspected for presence of colonies. When colonies became more than 70% confluent, they were dissociated with trypsin and were further expanded. Cell clones with homozygous double cleavage of WFS1 exon 8 were detected with PCR and confirmed with DNA sequencing.
HEK293 cells containing empty pCLPCx vector (HEK293 empty), HEK293 cells stably over-expression WFS1 (HEK293 WFS1), HepG2, and HepG2 cells where WFS1 was depleted via CRISPR/Cas9 (HepG2 WFS1 KO) cells were plated into 96-well black plates (Corning, product #3904) in 100 microliters of complete DMEM cell culture media [DMEM (Life Technologies, product #11960-051) media supplemented with 10% FBS (Hyclone, catalog #SH30071.03), antimycotic/antibiotic (Life Technologies, product #15240-062), and Glutamax (Life Technologies, product #35050-061)] at 1,000 (HEK293) or 5,000 (HepG2) cells per well. Cells were allowed to attach and grow overnight, after which compounds are added at various concentrations. Cell viability was assessed 96 hrs after compound addition with CellTiter-Glo reagent (Promega, catalog #G7570) according to manufacturer's protocol and measurement on a Pherastar luminescence plate reader (BMG Labtech).
To determine the effect of WFS1 depletion on compound mediated inhibition of cell viability, parental HepG2 cells and HepG2 cells where WFS1 was deleted by CRISPR/Cas9 were exposed to increasing concentrations of either Compound 136 or Compound 253 for 96 hours after which time viability was determined using Cell Titer Glo reagent (Promega). […] The IC50s for the viability of both the HepG2 parental and WFS1 knockout cells are summarized in Table 47: A<0.5 μM; 0.5 μM≤<2.0 μM; 2.0 μM≤C<10.0 μM; D≥[…].

Compound | IC50 [µM]
Cc1nc(NCc2cnn(Cc3ccc(F)nc3)c2)nc2c1NC(=O)[C@H](C1CC1)N2C [Compound 421, (7S)-7-cyclopropyl-2-(((1-((6-fluoropyridin-3-yl)methyl)-1H-pyrazol-4-yl)methyl)amino)-4,8-dimethyl-7,8-dihydropteridin-6(511)-one] | ≥ 10
(7S)-2-(((1-((6-fluoro-2-isopropylpyridin-3-yl)methyl)-1H-pyrazol-4-yl)methyl)(methyl)amino)-7-isopropyl-4,8-dimethyl-7,8-dihydropteridin-6(5H)-one [Compound 430] | ≥ 10

same assay, conditions: Homo sapiens; HepG2 WFS1 knockout, 96 hours; read-out: HepG2 WFS1 KO viability

Compound | IC50 [µM]
Cc1nc(NCc2cnn(Cc3ccc(F)cc3)c2)nc2c1NC(=O)C1(CC1)N2 [Compound 222, 2′-(((1-(4-fluorobenzyl)-1H-pyrazol-4-yl)methyl)amino)-4′-methyl-5′,8′-dihydro-6′H-spiro[cyclopropane-1,7′-pteridin]-6′-one] | ≥ 10
Cc1cc(F)ncc1Cn1cc(CNc2nc(C)c3c(n2)N(C)[C@@H](C(C)C)C(=O)N3)cn1 [Compound 423, (7S)-2-(((1-((6-fluoro-4-methylpyridin-3-yl)methyl)-1H-pyrazol-4-yl)methyl)amino)-7-isopropyl-4,8-dimethyl-7,8-dihydropteridin-6(5H)-one] | ≥ 10
Cc1nc(NCc2cnn(Cc3ccc(C(F)(F)F)nc3[C@@H](C)O)c2)nc2c1NC(=O)[C@H](C)N2C (single isomer, unassigned) [Compound 420] | ≥ 10
Cc1nc(NCc2cn(Cc3ccc(C(F)(F)F)nc3)nc2Br)nc2c1NC(=O)[C@H](C)N2C [Compound 412, (S)-2-(((3-bromo-1-((6-(trifluoromethyl)pyridin-3-yl)methyl)-1H-pyrazol-4-yl)methyl)amino)-4,7,8-trimethyl-7,8-dihydropteridin-6(5H)-one] | ≥ 10
Cc1nc(NCc2cnn(Cc3ccc(C(F)(F)F)nc3C(C)O)c2)nc2c1NC(=O)[C@H](C)N2C (stereo partly drawn) [Compound 419, (7S)-2-(((1-((2-((S)-1-hydroxyethyl)-6-(trifluoromethyl)pyridin-3-yl)methyl)-1H-pyrazol-4-yl)methyl)amino)-4,7,8-trimethyl-7,8-dihydropteridin-6(5H)-one] | ≥ 10
Cc1ncc(Cn2cc(CNc3nc(C)c4c(n3)N(C)[C@@H](C)C(=O)N4)cn2)cn1 [Compound 163, (7S)-4,7,8-trimethyl-2-(((1-((2-methylpyrimidin-5-yl)methyl)-1H-pyrazol-4-yl)methyl)amino)-7,8-dihydropteridin-6(5H)-one] | ≥ 10
Cc1cnc(C(F)(F)F)nc1-n1cc(CNc2ncc3c(n2)N(C)[C@@H](C)C(=O)N3)cn1 [Compound 164, (7S)-7,8-dimethyl-2-(((1-(5-methyl-2-(trifluoromethyl)pyrimidin-4-yl)-1H-pyrazol-4-yl)methyl)amino)-7,8-dihydropteridin-6(5H)-one] | ≥ 10
Cc1nc(NCc2cnn(Cc3ccc(C(F)(F)F)nc3Cl)c2)nc2c1NC(=O)[C@H](C)N2C [Compound 418, (7S)-2-(((1-((2-chloro-6-(trifluoromethyl)pyridin-3-yl)methyl)-1H-pyrazol-4-yl)methyl)amino)-4,7,8-trimethyl-7,8-dihydropteridin-6(5H)-one] | ≥ 10

Continued, values first:

IC50 [µM] | Compound
≥ 10 | CCOc1ccc(CCn2cc(CNc3ncc4c(n3)N(C)[C@@H](C)C(=O)N4)cn2)cc1 [Compound 121, (7S)-2-(((1-(4-ethoxyphenethyl)-1H-pyrazol-4-yl)methyl)amino)-7,8-dimethyl-7,8-dihydropteridin-6(5H)-one]
≥ 10 | Cc1nc(NCc2cnn(C[C@H](C)c3ccc(F)cc3)c2)nc2c1NC(=O)[C@H](C)N2C [Compound 96, (7S)-2-(((1-((R)-2-(4-fluorophenyl)propyl)-1H-pyrazol-4-yl)methyl)amino)-4,7,8-trimethyl-7,8-dihydropteridin-6(5H)-one]
≥ 10 | Cc1nc(NCc2cnn(Cc3ccc(C(F)(F)F)nc3C(C)(C)O)c2)nc2c1NC(=O)[C@H](C)N2C [Compound 416, (7S)-2-(((1-((2-(2-hydroxypropan-2-yl)-6-(trifluoromethyl)pyridin-3-yl)methyl)-1H-pyrazol-4-yl)methyl)amino)-4,7,8-trimethyl-7,8-dihydropteridin-6(5H)-one]
≥ 10 | Cc1nc(NCc2cnn(Cc3cnc(Cl)c(F)c3)c2)nc2c1NC(=O)[C@H](C(C)C)N2C [Compound 424, (7S)-2-(((1-((6-chloro-5-fluoropyridin-3-yl)methyl)-1H-pyrazol-4-yl)methyl)amino)-7-isopropyl-4,8-dimethyl-7,8-dihydropteridin-6(5H)-one]
≥ 10 | Cc1nc(NCc2cn(Cc3ccc(C(F)(F)F)nc3)cn2)nc2c1NC(=O)[C@H](C)N2C [Compound 428, (S)-4,7,8-trimethyl-2-(((1-((6-(trifluoromethyl)pyridin-3-yl)methyl)-1H-imidazol-4-yl)methyl)amino)-7,8-dihydropteridin-6(5H)-one]
≥ 10 | Cc1nc(NCc2cnn(CC(C)(O)c3ccc(F)cc3)c2)nc2c1NC(=O)[C@H](C)N2C (stereo partly drawn) [Compound 128, (7S)-2-(((1-(2-(4-fluorophenyl)-2-hydroxypropyl)-1H-pyrazol-4-yl)methyl)amino)-4,7,8-trimethyl-7,8-dihydropteridin-6(5H)-one]
≥ 10 | Cc1nc(NCc2cnn(C3CCN(C(=O)c4ccc(F)cc4)CC3)c2)nc2c1NC(=O)[C@H](C)N2C [Compound 125, (7S)-2-(((1-(1-(4-Fluorobenzoyl)piperidin-4-yl)-1H-pyrazol-4-yl)methyl)amino)-4,7,8-trimethyl-7,8-dihydropteridin-6(5H)-one]
≥ 10 | CC[C@H]1C(=O)Nc2cnc(NCc3cnn(Cc4ccc(C(F)(F)F)nc4)c3)nc2N1C [Compound 427, (7S)-7-ethyl-8-methyl-2-(((1-((6-(trifluoromethyl)pyridin-3-yl)methyl)-1H-pyrazol-4-yl)methyl)amino)-7,8-dihydropteridin-6(5H)-one]
≥ 10 | Cc1nc(NCc2cnn(CCC3CCOCC3)c2)nc2c1NC(=O)[C@H](C)N2C [Compound 115, (7S)-4,7,8-trimethyl-2-(((1-(2-(tetrahydro-2H-pyran-4-yl)ethyl)-1H-pyrazol-4-yl)methyl)amino)-7,8-dihydropteridin-6(5H)-one]

target: Plk1 (Homo sapiens (Human), UniProt P53350); test: PLK1 inhibition assay (radioactive-phosphate incorporation); type: biochemical; settings: Ki(app), read-out: PLK1 - 33P.ENZ - CB 10 Ki
Summary of the method: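 Radioactive-phosphate incorporation with 15 nM Plk1 and 9 µM Sam68 substrate, 20 µM [γ-33P]ATP, in 25 mM HEPES pH 7.5, 10 mM MgCl2, 25 mM NaCl, 2 mM DTT, 1.5% DMSO, room temperature, 45 min. Stopped with TCA/cold ATP, filtered, scintillation counted. Ki(app) from non-linear regression of background-corrected initial rates.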

Sequence of Plk1 (P53350 whole entry, species assumed): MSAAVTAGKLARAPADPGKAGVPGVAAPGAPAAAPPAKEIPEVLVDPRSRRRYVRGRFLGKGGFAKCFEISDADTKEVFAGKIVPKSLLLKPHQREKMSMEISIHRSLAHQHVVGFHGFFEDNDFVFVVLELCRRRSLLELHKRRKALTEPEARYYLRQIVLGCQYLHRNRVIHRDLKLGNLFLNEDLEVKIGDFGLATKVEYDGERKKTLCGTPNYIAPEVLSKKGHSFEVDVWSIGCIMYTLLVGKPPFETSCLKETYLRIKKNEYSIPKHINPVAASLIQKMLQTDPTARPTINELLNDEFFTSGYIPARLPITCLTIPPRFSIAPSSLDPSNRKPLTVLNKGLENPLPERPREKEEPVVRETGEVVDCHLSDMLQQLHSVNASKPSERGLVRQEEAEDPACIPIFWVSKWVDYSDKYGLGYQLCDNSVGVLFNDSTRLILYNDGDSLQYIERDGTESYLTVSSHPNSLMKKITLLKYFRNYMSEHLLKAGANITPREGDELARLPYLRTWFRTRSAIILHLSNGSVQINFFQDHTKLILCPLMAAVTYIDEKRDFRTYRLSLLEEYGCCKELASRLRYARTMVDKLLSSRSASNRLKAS

Ki [µM] | Compound
> 4 | Cc1nc(N[C@H]2C[C@H](Oc3ccnc(C(F)(F)F)c3)C2)nc2c1NC(=O)[C@H](C)N2C [Compound 335, (7S)-4,7,8-trimethyl-2-((trans-3-((2-(trifluoromethyl)pyridin-4-yl)oxy)cyclobutyl)amino)-7,8-dihydropteridin-6(5H)-one]
> 4 | Cc1nc(NCc2cnn(Cc3cc(C(F)(F)F)nn3C)c2)nc2c1NC(=O)[C@H](C)N2C [Compound 160, (7S)-4,7,8-trimethyl-2-(((1-((1-methyl-3-(trifluoromethyl)-1H-pyrazol-5-yl)methyl)-1H-pyrazol-4-yl)methyl)amino)-7,8-dihydropteridin-6(5H)-one]
> 4 | Cc1nc(N[C@@H]2CC[C@@H](n3ccc(C(F)(F)F)n3)C2)nc2c1NC(=O)[C@H](C)N2C (single isomer, unassigned) [Compound 311]
> 4 | Cc1nc(NCc2cnn(Cc3ccc(F)cc3)c2)nc2c1NC(=O)[C@H](C)N2C [Compound 4, (7S)-2-(((1-(4-fluorobenzyl)-1H-pyrazol-4-yl)methyl)amino)-4,7,8-trimethyl-7,8-dihydropteridin-6(5H)-one]
